Data published in ChEMBL document CHEMBL1821549, “Phylogeny-guided isolation of ethyl tumonoate A from the marine cyanobacterium cf. Oscillatoria margaritifera” (J Nat Prod, 2011).
pIC50: −log10 of the molar value. The source made the active and inactive calls. The calls are words filed in the database; no cut-off is given here.

Columns and labels:
Mus musculus = species on record: Mus musculus; experiment: Inhibition of calcium (Ca2+) oscillations in Swiss-Webster mouse neocortical neurons at 10 uM by Fluo-3 dye based fluorimetric assay; assay type: functional
NCI-H460 = experiment: Cytotoxicity against human H460 cells at =>10 ug/mL; assay type: cell-based
RAW264.7 [1] = experiment: Cytotoxicity against mouse RAW264.7 cells after 48 hrs by MTT assay; assay type: cell-based; details: raw264.7, 48 h
RAW264.7 [2] = experiment: Antiinflammatory activity in mouse RAW264.7 cells assessed as inhibition of LPS-induced nitric oxide production incubated for 24 hrs by Griess method; assay type: functional, cell-based; details: RAW264.7, 24 h

Row | Structure (SMILES) | inhibition (Mus musculus) | Activity (NCI-H460) | Activity (RAW264.7 [1]) | pIC50 (RAW264.7 [2])
1 | CCCCCCC/C=C(\C)[C@@H](O)[C@@H](C)C(=O)N1CCC[C@H]1C(=O)O | Active |  |  | 
2 | CCCCCCCCC(C)[C@H](OC(C)=O)[C@H](C)C(=O)N1CCC[C@H]1C(=O)O (some centres not stated) | Active |  |  | 
3 | CCCCCCCC[C@H](C)C(=O)N1CCC[C@H]1C(=O)O[C@@H](C(=O)O[C@@H](C)C(=O)O)[C@@H](C)CC | inactive |  |  | 
4 | CCCCCCC/C=C(\C)[C@@H](O)[C@@H](C)C(=O)N1CCC[C@H]1C(=O)OCC [ETHYL TUMONOATE A] | Active | Non-toxic | Non-toxic | 5.01
